Data from patent US7235518B2, “Fabric care compositions comprising hueing dye” (The Procter & Gamble Company, priority 2004, dated 2007).

Key:
[1] = Water solubility of brightener; type: physicochemical
Source text: Brighteners should have some water solubility for easy incorporation into the fabric conditioning composition. […] Fluorescent whitening agents, generally due to their low water solubility, are difficult to incorporate into liquid fabric conditioning compositions. Often it is advantageous to post-add brighteners to a finished base product. One convenient way to do this is to make a brighteners premix.

[2] = Chemical stability of brightener in acidic product matrix; type: physicochemical; conditions: biodegradable fabric conditioning compositions, pH from about 3 to about 4

- water solubility ([1]; 25 C): 2.5%
- water solubility ([1]; 25° C.): about 2.5 weight percent
- chemical stability in the acidic product matrix [2]: better than some other brighteners
SMILES: O=S(=O)(O)c1ccccc1C=Cc1ccc(-c2ccc(C=Cc3ccccc3S(=O)(=O)O)cc2)cc1.[Na].[Na] [Tinopal CBS-X, Disodium 4,4′-bis-(2-sulfostyryl) biphenyl]
